pIC50: −log10 of the molar value.
Key:
NDM-1 = NDM-1 (Klebsiella pneumoniae, UniProt C7C422); experiment: Enzyme activity: determination of IC50, fluorescence assay with CCF2-FA substrate (NDM-1); type: biochemical; conditions: 1 pM enzyme, 1.25 μM CCF2-FA, 2 hours at 25° C.; read-out: NDM1 IC50
Procedure: (§1) The Class B enzyme activities were measured in the presence of the test inhibitor in a fluorescence assay against a commercially available substrate consisting of a cephalosporin core linking 7-hydroxycoumarin to fluorescein (CCF2-FA). The enzyme (NDM-1, IMP-1 or VIM-1) and the substrate were diluted in 100 mM KH2PO4 buffer (pH 7) containing 0.005% Tween-20 and 10 μM ZnSO4. In the assay, the final concentration of enzyme was 1 pM, 2 pM and 30 pM for NDM-1, IMP-1 and VIM-1, respectively, and the final concentration of CCF2-FA was 1.25 μM. The test inhibitor was dissolved in dimethylsulfoxide and diluted 1:50 in the assay, resulting in a final concentration range of 20 μM to 0.00063 μM. In a 384-well microplate, the test inhibitor was incubated with the metallo-β-lactamase enzyme and the substrate for 2 hours at 25° C. Fluorescence at 460 nm following excitation at 405 nm was measured. The IC50 value was determined from semi-logarithmic plots of enzyme inhibition versus inhibitor concentration, with a curve generated using a 4-parameter fit.

IMP-1 = IMP-1 (Serratia marcescens, UniProt P52699); experiment: Enzyme activity: determination of IC50, fluorescence assay with CCF2-FA substrate (IMP-1); type: biochemical; conditions: 2 pM enzyme, 1.25 μM CCF2-FA, 2 hours at 25° C.; read-out: IMP1 IC50
Chain of IMP-1 (P52699 19-246, looked up, species assumed): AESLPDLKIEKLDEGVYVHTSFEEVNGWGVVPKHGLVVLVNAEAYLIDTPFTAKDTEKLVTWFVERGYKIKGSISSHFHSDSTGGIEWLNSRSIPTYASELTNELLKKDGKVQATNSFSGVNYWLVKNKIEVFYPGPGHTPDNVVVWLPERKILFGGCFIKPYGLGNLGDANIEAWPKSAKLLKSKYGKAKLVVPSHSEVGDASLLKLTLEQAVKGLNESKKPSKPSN
Procedure: as §1

VIM-1 = VIM-1 (Pseudomonas aeruginosa, UniProt A0A0F7KYQ8); experiment: Enzyme activity: determination of IC50, fluorescence assay with CCF2-FA substrate (VIM-1); type: biochemical; conditions: 30 pM enzyme, 1.25 μM CCF2-FA, 2 hours at 25° C.; read-out: VIM1 IC50
Procedure: as §1

VIM-2 = VIM-2 (Escherichia coli, UniProt Q5U7L7); experiment: Enzyme activity: determination of IC50 (VIM-2); type: biochemical; conditions: read-out: VIM2 IC50
[1] = system: Escherichia coli expressing NDM-1 (CLB30016); experiment: Antibiotic potentiation activity: synergistic concentration (MITC95) with imipenem; type: cell-based; conditions: imipenem 1 μg/mL; lowest concentration inhibiting 95% of growth; 35° C., 22-24 hours
Procedure: (§2) The bacterial strains tested included the clinical strains Escherichia coli expressing NDM-1 (CLB30005, CLB30016), Serratia marcescens expressing IMP-1 (CL5741), and Klebsiella pneumoniae expressing VIM-1 (IHMA599644). Inhibitor activity was measured in the presence and absence of imipenem in a 384-well microplate.
(§3) The clinical strains CLB30016, CL5741 and IHMA599644 were grown on trypticase soy agar containing 5% sheep's blood. The bacteria on agar plates were incubated at 35° C. with humidity overnight. The following day, individual colonies from each clinical strain were picked and resuspended in 5 mL saline to attain an OD600 of 0.14, 0.11, 0.15 and 0.13, for CLB30016, CL5741 and IHMA599644, respectively. These were further diluted 1:100 into 1.1× CAMHB and used to inoculate the test wells as described below.
(§4) Imipenem in 10 mM 3-(N-morpholino)propanesulfonic acid (MOPS, pH 7) was stored in single use aliquots at −80° C. […] On the day of the assay, 4 μl of antibiotic was added to 45 μl of bacteria followed by 1 μl of test compound and mixed by pipetting and with an orbital shaker. The concentration of antibiotic used in the assay was 1 μg/mL. Microplates were covered and incubated at 35° C. for 22 hours to 24 hours. At the end of the incubation, absorbance was determined using a spectrophotometer. The synergistic concentration of MBLI was determined by identifying the lowest concentration of test compound in the presence of a given concentration of antibiotic that was required to inhibit 95% of the growth of the bacteria. The results for Examples 1-209 are reported in Table 1, expressed as the concentration of compound that potentiated the action of antibiotic (imipenem) affecting 95% inhibition of bacterial growth (MITC95).

[2] = system: Klebsiella pneumoniae expressing VIM-1 (IHMA599644); experiment: as above; type: cell-based; conditions: imipenem 1 μg/mL; lowest concentration inhibiting 95% of growth; 35° C., 22-24 hours
Procedure: as §2, §3, §4

[3] = system: Serratia marcescens expressing IMP-1 (CL5741); experiment: as above; type: cell-based; conditions: imipenem 1 μg/mL; lowest concentration inhibiting 95% of growth; 35° C., 22-24 hours
Procedure: as §2, §3, §4

[4] = system: P. aeruginosa MB9798 (efflux WT, IMP-1); experiment: Efflux: concentration of MBL inhibitor restoring susceptibility to imipenem (MITC95), efflux+ strain; type: cell-based, Pseudomonas aeruginosa; conditions: imipenem at 2 μg/mL in the presence of a class A, C, D serine β-lactamase inhibitor closely related to relebactam
Description: (§5) In order to assess the contribution of efflux to lack of whole cell inhibition of metallo-beta-lactamase inhibitors of formula I, tool strains were constructed. The strain background is Pseudomonas aeruginosa PAO1. A wild-type (MB5919) and an isogenic strain in which multiple efflux pumps have been disrupted genetically were used. The MBL IMP-1, obtained from a clinical isolate was introduced into the strain pair by the following process:
(§6) Plasmid DNA (encoding IMP-1) was extracted from CL 5673 (IMP-1, P. aeruginosa clinical strain) by standard techniques. The plasmid DNA was transformed into parental MB5919 (oprD+, efflux+, inducible AmpC) and MB5890 (oprD+, efflux−, inducible AmpC) isogenic strains by electroporation. These transformed strains were plated onto cation-adjusted Muller-Hinton agar plates containing ceftazidime at 32 μg/mL (MB5919) and 16 μg/mL (MB5890) to select for those cells in which the IMP-1-expressing plasmid was introduced successfully, resulting in resistance to ceftazidime. Agarose-gel electrophoresis of PCR product for IMP-1 from the successful transformants was used to compare to control and to the original strain from which the plasmid was obtained, confirming transfer of the IMP-1 gene (data not shown).
(§7) The strain set was then used as a pair to determine the effect of metallo-β-lactamase inhibitors of Formula Ion the MIC of imipenem and/or ceftazidime. A fixed concentration of antibiotic is included in standard microbroth MIC tests, usually at the CLSI breakpoint concentration. A fixed amount of a class A/C beta-lactamase inhibitor is also included to inhibit the resident Pseudomonas AmpC enzyme. A serial titration of the metallo-β-lactamase inhibitor was included and the concentration of metallo-β-lactamase inhibitor which restores susceptibility of the strain to the included antibiotic was recorded. That concentration of metallo-β-lactamase inhibitor was then compared between the two strains to determine the fold difference between the efflux+(MB9798) and efflux−(MB9799) strains, which indicates n the extent to which the MBLi is subject to efflux.

[5] = system: P. aeruginosa MB9799 (efflux mutant, IMP-1); experiment: Efflux: concentration of MBL inhibitor restoring susceptibility to imipenem (MITC95), efflux− strain; type: cell-based, Pseudomonas aeruginosa; conditions: imipenem at 2 μg/mL in the presence of a class A, C, D serine β-lactamase inhibitor closely related to relebactam
Description: as §5, §6, §7

Chain of NDM-1 (C7C422 29-270, looked up, species assumed): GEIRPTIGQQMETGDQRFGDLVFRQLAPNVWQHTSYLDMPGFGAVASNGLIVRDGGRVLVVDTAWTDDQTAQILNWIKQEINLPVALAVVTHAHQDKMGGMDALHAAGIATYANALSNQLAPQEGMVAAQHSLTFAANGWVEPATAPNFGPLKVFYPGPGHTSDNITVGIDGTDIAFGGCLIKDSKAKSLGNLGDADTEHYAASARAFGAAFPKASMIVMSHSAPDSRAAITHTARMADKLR

SMILES | pIC50 (NDM-1) | pIC50 (IMP-1) | pIC50 (VIM-1) | pIC50 (VIM-2) | CLB30016 E.coli MITC95 NDM [1] [µM] | IHMA599644 K.pneumoniae MITC95 uM VIM [2] [µM] | CL5741 S.marcescens MITC95 uM IMP [3] [µM] | MB9798 MITC95 P. aeruginosa Efflux WT [4] [µM] | MB9799 MITC95 P. aeruginosa Efflux Mutant [5] [µM]
NC[C@@H](O)CNS(=O)(=O)c1ccc(N2CC[C@@H](CO)n3ccnc32)c(-c2nn[nH]n2)c1S(N)(=O)=O [Example 39, N1-((R)-3-amino-2-hydroxypropyl)-4-((S)-5-(hydroxymethyl)-6,7-dihydroimidazo[1,2-a]pyrimidin-8(5H)-yl)-3-(2H-tetrazol-5-yl)benzene-1,2-disulfonamide] | 9.05 | 8.19 | 8.79 | 7.84 | 0.29 | 1.56 | 0.78 | 2.34 | 1.17
NS(=O)(=O)c1c(S(=O)(=O)N[C@@H]2CCNC2)ccc(N2CCCc3ccc(CCO)nc32)c1-c1nnn[nH]1 [Example 35, 4-[7-(2-hydroxyethyl)-3,4-dihydro-1,8-naphthyridin-1(2H)-yl]-N1-[(3R)-pyrrolidin-3-yl]-3-(1H-tetrazol-5-yl)benzene-1,2-disulfonamide] | 8.36 | 8.33 | 8.24 | 8.25 | 0.78 | 6.25 | 1.56 | 50.00 | 0.78
NS(=O)(=O)c1c(S(=O)(=O)N[C@@H]2CCNC2)ccc(N2CCCn3nccc32)c1-c1nn[nH]n1 [Example 7, (R)-4-(6,7-dihydropyrazolo[1,5-a]pyrimidin-4(5H)-yl)-N^1-(pyrrolidin-3-yl)-3-(2H-tetrazol-5-yl)benzene-1,2-disulfonamide] | 9.85 | 8.55 | 9.89 | 9.18 | 6.25 | 6.25 | 3.13 | 3.13 | 1.56
NCCNS(=O)(=O)c1ccc(N2CCn3ccnc32)c(-c2nnn[nH]2)c1S(N)(=O)=O [Example 20, N1-(2-aminoethyl)-4-(2,3-dihydro-1H-imidazo[1,2-a]imidazol-1-yl)-3-(1H-tetrazol-5-yl)benzene-1,2-disulfonamide] | 8.77 | 8.01 | 7.91 | 7.82 | 0.39 | 3.13 | 0.78 | 6.25 | 0.78
NS(=O)(=O)c1c(S(=O)(=O)N[C@@H]2CCNC2)ccc(N2CCc3ncc(O)cc3C2)c1-c1nnn[nH]1 [Example 24, 4-(3-hydroxy-7,8-dihydro-1,6-naphthyridin-6(5H)-yl)-N1-[(3R)-pyrrolidin-3-yl]-3-(1H-tetrazol-5-yl)benzene-1,2-disulfonamide] | 9.55 | 8.86 | 9.72 | 9.13 | 0.39 | 3.13 | 1.56 | 25.00 | 3.13
CCOC(=O)c1cn2c(n1)N(c1ccc(S(=O)(=O)N[C@@H]3CCNC3)c(S(N)(=O)=O)c1-c1nn[nH]n1)CCC2 [Example 5, ethyl (R)-8-(4-(N-(pyrrolidin-3-yl)sulfamoyl)-3-sulfamoyl-2-(2H-tetrazol-5-yl)phenyl)-5,6,7,8-tetrahydroimidazo[1,2-a]pyrimidine-2-carboxylate] | 10.40 | 9.02 | 9.92 | 9.26 | 12.50 | 12.50 | 6.25 | 6.25 | 3.13
NCCNS(=O)(=O)c1ccc(N2CCCn3ccnc32)c(-c2nn[nH]n2)c1S(N)(=O)=O [Example 12, N1-(2-aminoethyl)-4-(6,7-dihydroimidazo[1,2-a]pyrimidin-8(5H)-yl)-3-(2H-tetrazol-5-yl)benzene-1,2-disulfonamide] | 8.80 | 8.33 | 9.22 | 8.66 | 0.05 | 0.39 | 0.20 | 0.78 | 0.20
NS(=O)(=O)c1c(S(=O)(=O)N[C@@H]2CCNC2)ccc(N2CCc3[nH]cnc3C2)c1-c1nnn[nH]1 [Example 31, N1-[(3R)-pyrrolidin-3-yl]-4-(1,4,6,7-tetrahydro-5H-imidazo[4,5-c]pyridin-5-yl)-3-(1H-tetrazol-5-yl)benzene-1,2-disulfonamide] | 8.95 | 8.15 | 9.23 | 8.48 | 0.20 | 3.13 | 0.78 | 3.13 | 0.78
NS(=O)(=O)c1c(S(=O)(=O)N[C@@H]2CCNC2)ccc(N2CCCc3ccncc32)c1-c1nnn[nH]1 [Example 21, 4-(3,4-dihydro-1,7-naphthyridin-1(2H)-yl)-N1-[(3R)-pyrrolidin-3-yl]-3-(1H-tetrazol-5-yl)benzene-1,2-disulfonamide] | 9.68 | 8.61 | 9.66 | 8.91 | 0.20 | 6.25 | 0.78 | 3.13 | 1.56

Reference: US20200375987A1, “METALLO-BETA-LACTAMASE INHIBITORS AND METHODS OF USE THEREOF” (priority 2018, published 2020)
